According to ChEMBL document CHEMBL1781986, “Structure-activity relationships of pyrrole based S-nitrosoglutathione reductase inhibitors: pyrrole regioisomers and propionic acid replacement” (Bioorg Med Chem Lett, 2011):
Calls of active or inactive are those of the source. No cut-off for these calls is given here.

Key:
[1] = molecular target: Histamine H2 receptor (Homo sapiens) (UniProt P25021); test: Inhibition of human recombinant H2 receptor at 10 uM by radioligand binding assay
[2] = molecular target: Neuropeptide Y receptor type 2 (Homo sapiens) (UniProt P49146); test: Inhibition of human recombinant Y2 receptor at 10 uM by radioligand binding assay
[3] = molecular target: Mu-type opioid receptor (Homo sapiens) (UniProt P35372); test: Inhibition of human recombinant MOP receptor at 10 uM by radioligand binding assay
[4] = molecular target: Muscarinic acetylcholine receptor M3 (Homo sapiens) (UniProt P20309); test: Inhibition of human recombinant M3 receptor at 10 uM by radioligand binding assay
[5] = molecular target: Adrenergic receptor alpha-1 (Homo sapiens) (UniProt P35348+P25100+P35368); test: Inhibition of human recombinant alpha1 receptor at 10 uM by radioligand binding assay
[6] = molecular target: T1, Substance-K receptor (Homo sapiens) (UniProt P21452); test: Inhibition of human recombinant NK2 receptor at 10 uM by radioligand binding assay
T1 sequence (whole entry): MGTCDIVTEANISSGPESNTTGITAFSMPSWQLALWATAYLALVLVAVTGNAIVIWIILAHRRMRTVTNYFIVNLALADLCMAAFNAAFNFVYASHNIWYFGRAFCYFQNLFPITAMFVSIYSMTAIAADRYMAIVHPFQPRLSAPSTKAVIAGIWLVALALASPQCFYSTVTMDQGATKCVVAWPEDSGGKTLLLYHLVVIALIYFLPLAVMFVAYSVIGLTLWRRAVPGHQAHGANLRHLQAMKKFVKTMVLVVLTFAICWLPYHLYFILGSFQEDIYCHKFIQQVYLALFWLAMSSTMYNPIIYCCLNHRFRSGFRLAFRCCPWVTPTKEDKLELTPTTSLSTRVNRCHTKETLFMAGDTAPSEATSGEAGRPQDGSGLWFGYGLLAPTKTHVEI

[7] = molecular target: T2, Neuromedin-K receptor (Homo sapiens) (UniProt P29371); test: Inhibition of human recombinant NK3 receptor at 10 uM by radioligand binding assay
T2 sequence (whole entry): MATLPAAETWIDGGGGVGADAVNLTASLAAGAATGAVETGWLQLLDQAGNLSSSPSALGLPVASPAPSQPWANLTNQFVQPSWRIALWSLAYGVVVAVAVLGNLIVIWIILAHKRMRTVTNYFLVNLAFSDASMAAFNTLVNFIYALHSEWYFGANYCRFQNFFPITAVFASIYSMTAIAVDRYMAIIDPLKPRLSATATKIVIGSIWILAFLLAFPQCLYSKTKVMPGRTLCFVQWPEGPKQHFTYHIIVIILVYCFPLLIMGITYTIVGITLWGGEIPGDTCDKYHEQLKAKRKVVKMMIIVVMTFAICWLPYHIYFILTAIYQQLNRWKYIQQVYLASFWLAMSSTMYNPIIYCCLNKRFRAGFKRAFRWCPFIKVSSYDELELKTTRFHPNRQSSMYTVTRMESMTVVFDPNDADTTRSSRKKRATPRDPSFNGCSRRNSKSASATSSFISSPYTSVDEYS

[8] = molecular target: T3, Muscarinic acetylcholine receptor M1 (Homo sapiens) (UniProt P11229); test: Inhibition of human recombinant M1 receptor at 10 uM by radioligand binding assay
T3 sequence (whole entry): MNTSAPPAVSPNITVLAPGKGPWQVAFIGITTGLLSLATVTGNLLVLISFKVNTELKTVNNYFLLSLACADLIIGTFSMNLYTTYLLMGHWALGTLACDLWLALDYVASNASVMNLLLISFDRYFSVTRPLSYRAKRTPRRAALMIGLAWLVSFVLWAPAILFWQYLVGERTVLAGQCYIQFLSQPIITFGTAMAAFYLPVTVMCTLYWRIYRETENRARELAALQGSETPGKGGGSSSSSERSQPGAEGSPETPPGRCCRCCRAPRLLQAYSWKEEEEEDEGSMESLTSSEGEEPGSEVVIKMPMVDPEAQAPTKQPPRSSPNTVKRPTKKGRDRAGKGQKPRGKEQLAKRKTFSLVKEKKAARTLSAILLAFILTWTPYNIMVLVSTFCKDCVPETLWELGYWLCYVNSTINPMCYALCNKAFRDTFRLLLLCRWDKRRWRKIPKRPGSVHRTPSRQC

[9] = molecular target: T4, Muscarinic acetylcholine receptor M2 (Homo sapiens) (UniProt P08172); test: Inhibition of human recombinant M2 receptor at 10 uM by radioligand binding assay
T4 sequence (whole entry): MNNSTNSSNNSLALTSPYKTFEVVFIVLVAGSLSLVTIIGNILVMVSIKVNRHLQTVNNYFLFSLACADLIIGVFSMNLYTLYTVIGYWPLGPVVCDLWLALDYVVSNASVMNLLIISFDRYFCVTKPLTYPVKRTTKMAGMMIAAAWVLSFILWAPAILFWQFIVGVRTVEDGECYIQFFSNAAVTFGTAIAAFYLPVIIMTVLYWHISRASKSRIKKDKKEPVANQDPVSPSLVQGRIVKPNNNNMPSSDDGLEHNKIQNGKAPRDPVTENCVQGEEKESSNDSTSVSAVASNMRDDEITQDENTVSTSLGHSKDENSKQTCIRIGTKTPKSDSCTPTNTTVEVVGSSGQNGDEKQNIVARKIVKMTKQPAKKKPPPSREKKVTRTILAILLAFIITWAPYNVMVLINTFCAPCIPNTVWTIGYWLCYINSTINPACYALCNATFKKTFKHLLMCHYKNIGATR

[10] = molecular target: T5, 5-hydroxytryptamine receptor 3A (Homo sapiens) (UniProt P46098); test: Inhibition of human recombinant 5HT3 receptor at 10 uM by radioligand binding assay
T5 sequence (whole entry): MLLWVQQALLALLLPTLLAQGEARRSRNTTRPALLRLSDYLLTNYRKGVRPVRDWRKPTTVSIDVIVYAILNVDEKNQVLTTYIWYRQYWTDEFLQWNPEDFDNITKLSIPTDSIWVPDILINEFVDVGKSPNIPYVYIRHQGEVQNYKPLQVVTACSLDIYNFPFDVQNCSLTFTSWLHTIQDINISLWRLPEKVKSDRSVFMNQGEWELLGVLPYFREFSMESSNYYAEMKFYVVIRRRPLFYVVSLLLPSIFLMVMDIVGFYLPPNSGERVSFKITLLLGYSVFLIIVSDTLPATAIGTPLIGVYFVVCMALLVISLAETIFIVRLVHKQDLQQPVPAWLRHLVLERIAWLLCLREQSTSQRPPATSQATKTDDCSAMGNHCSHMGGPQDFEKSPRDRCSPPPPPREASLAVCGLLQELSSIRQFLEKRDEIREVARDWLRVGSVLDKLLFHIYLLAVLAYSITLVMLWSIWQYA

Chain of Neuropeptide Y receptor type 2 (Homo sapiens) (P49146 whole entry, looked up): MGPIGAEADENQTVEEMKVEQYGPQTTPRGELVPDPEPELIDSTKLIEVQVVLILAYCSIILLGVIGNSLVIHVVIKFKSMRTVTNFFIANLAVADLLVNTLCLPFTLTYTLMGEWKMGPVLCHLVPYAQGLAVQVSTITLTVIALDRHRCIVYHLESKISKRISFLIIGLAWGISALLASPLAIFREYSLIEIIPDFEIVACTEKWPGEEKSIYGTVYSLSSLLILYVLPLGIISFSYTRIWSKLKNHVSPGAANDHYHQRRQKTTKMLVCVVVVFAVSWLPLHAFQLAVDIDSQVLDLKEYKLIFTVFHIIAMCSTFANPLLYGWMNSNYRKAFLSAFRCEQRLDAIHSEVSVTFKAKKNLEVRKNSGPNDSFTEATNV
Chain of Histamine H2 receptor (Homo sapiens) (P25021 whole entry): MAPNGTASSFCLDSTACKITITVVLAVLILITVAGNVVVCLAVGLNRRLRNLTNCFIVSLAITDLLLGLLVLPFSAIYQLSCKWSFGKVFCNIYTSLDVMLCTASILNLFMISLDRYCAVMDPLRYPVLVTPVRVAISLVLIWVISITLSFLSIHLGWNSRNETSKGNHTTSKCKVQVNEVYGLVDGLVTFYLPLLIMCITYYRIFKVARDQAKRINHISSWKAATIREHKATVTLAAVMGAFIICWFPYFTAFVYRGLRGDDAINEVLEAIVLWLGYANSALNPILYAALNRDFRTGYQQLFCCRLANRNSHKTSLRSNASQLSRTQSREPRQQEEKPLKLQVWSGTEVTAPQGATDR
Chain of Muscarinic acetylcholine receptor M3 (Homo sapiens) (P20309 whole entry, looked up): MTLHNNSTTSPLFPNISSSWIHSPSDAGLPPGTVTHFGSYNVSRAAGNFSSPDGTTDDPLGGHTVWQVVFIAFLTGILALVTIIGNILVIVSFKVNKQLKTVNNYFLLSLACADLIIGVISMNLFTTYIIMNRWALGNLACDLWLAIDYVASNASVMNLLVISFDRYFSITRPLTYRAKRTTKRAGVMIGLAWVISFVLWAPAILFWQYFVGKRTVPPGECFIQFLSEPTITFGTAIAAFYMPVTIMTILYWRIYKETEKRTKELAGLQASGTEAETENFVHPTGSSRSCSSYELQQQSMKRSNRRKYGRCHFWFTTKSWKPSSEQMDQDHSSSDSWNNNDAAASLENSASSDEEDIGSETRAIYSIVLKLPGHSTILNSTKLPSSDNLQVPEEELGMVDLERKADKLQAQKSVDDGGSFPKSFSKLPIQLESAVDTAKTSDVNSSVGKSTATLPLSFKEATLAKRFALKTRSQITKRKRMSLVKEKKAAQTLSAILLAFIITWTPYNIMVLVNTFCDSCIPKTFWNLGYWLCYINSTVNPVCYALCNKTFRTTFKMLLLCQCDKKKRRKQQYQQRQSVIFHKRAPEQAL
Chain of Mu-type opioid receptor (Homo sapiens) (P35372 whole entry): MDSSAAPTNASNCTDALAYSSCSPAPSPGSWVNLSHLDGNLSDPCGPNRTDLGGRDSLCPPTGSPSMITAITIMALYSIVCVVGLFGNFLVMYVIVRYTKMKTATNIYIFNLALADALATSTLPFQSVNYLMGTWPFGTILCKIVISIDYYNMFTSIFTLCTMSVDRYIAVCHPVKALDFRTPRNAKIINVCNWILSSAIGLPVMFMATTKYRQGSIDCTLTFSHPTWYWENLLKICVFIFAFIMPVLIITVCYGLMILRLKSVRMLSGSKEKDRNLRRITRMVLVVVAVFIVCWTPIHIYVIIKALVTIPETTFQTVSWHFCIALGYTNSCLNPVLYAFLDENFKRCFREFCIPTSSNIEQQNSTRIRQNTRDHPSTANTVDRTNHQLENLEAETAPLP

| Structure (SMILES) | inhibition [1] | inhibition [2] | inhibition [3] | inhibition [4] | inhibition [5] | inhibition [6] | inhibition [7] | inhibition [8] | inhibition [9] | inhibition [10] |
| --- | --- | --- | --- | --- | --- | --- | --- | --- | --- | --- |
| Cc1cc(C(N)=O)ccc1-c1c(CCC(=O)O)ccn1-c1ccc(-n2ccnc2)cc1 | inactive | inactive | inactive | inactive | inactive | inactive | inactive | inactive | inactive | inactive |
| COc1ccc(-c2ccn(-c3ccc(O)c([N+](=O)[O-])c3)c2-c2ccc(C(N)=O)cc2C)cc1 | Active | Active | Active | Active | Active | Active | Active | Active | Active | Active |
| Cc1cc(C(N)=O)ccc1-n1c(CCC(=O)O)ccc1-c1ccc(-n2ccnc2)cc1 [N6022] | inactive | inactive | inactive | inactive | inactive | inactive | inactive | inactive | inactive | inactive |
| Cc1cc(C(N)=O)ccc1-c1c(-c2ccc(-n3ccnc3)cc2)ccn1CCC(=O)O | inactive | inactive | inactive | inactive | inactive | inactive | inactive | inactive | inactive | inactive |
| COc1ccc(-c2ccn(-c3ccc(C(=O)O)c(O)c3)c2-c2ccc(C(N)=O)cc2C)cc1 | Active | Active | Active | Active | Active | Active | Active | Active | Active | Active |
